Assay results taken from patent US20090270419A1, “COMBINATIONS OF CLASS-I SPECIFIC HISTONE DEACETYLASE INHIBITORS WITH PROTEASOME INHIBITORS” (priority 2006, published 2009).

Legend:
[1] = system: acetylation of tubulin and induction of Hsp 70 in A2780 ovarian carcinoma cells; assay: Acetylation of tubulin and induction of Hsp 70 (Western blot, HDAC 6 readout); assay type: cell-based, human; details: 24 h, 0-3000 nM tested
Method: Total cell lysates were prepared and analysed by SDS-PAGE. […] Hsp 70 protein was detected with an antibody from Stressgen (Cat. nr. SPA-810), followed by ECL detection. Appropriate dilutions of antibodies were incubated for either 1-2 h at room temperature or overnight at 4° C. In order to control for equal loading, blots were stripped and re-probed with mouse monoclonal anti-actin IgM (Ab-1, Oncogene Research Products). […] Protein-antibody complexes were then visualized by chemiluminescence (Pierce Chemical Co) or fluorescence (Odyssey) according to the manufacturer's instructions. The experiments were performed three times.

[2] = system: acetylation of histone H3 and H4 and induction of p21waf1,cip1 in A2780 ovarian carcinoma cells; assay: Acetylation of cellular HDAC 1 substrates and induction of p21waf1,cip1 (Western blot); assay type: cell-based, human; details: 24 h, 0-3000 nM tested
Method: Total cell lysates were prepared and analysed by SDS-PAGE. Levels of acetylated H3 and H4 histones, total level of H3 proteins and levels p21^waf1, cip1 protein were detected using appropriate dilutions of rabbit polyclonal and mouse monoclonal antibodies, followed by enhanced chemoluminescence (ECL) detection. […] Antibodies were incubated for either 1-2 h at room temperature or overnight at 4° C. […] Protein-antibody complexes were then visualized by chemiluminescence (Pierce Chemical Co) or fluorescence (Odyssey) according to the manufacturer's instructions. The experiments were performed three times.

[3] = system: p21waf1,cip1 deficient cells as compared to the parental HCT-116 cells; details: p21waf1,cip1 deficient cells vs parental HCT-116 cells; cited from earlier work
Jurkat clone E6-1 = details: Jurkat clone E6-1, acute lymphoblastic leukemia; 72 hr, MTS
Method: (§1) Tumor cells were grown as cell suspension in the corresponding appropriate culture medium at 37° C. in a humidified 5% CO2 incubator. Mycoplasma-free tumor cells were seeded in 96-well flat-bottom microtitration plates and incubated at 37° C. for 24 hr in culture medium containing 10% FCS. […] Cells were then incubated for an additional 72 hr.

KG-1 = details: KG-1, acute myelogenous leukemia; 72 hr, MTS
Method: as §1

Daudi = details: Burkitt's lymphoma, 72 hr, MTS
Method: as §1

HL-60 = details: HL-60, acute promyelocytic leukemia; 72 hr, MTS
Method: as §1

K-562 = details: K-562, chronic myeloid leukemia; 72 hr, MTS
Method: as §1

CCRF-CEM = details: acute lymphoblastic leukemia, 72 hr, MTS
Method: as §1

BV-173 = details: BV-173, chronic B cell leukemia; 72 hr, MTS
Method: as §1

LAMA-84 = details: LAMA-84, chronic myeloid leukemia in blast crisis; 72 hr, MTS
Method: as §1

Namalwa = details: Burkitt's lymphoma, 72 hr, MTS
Method: as §1

THP-1 = details: THP-1, acute monocytic leukemia; 72 hr, MTS
Method: as §1

U-937 = details: U-937, lymphoma; 72 hr, MTS
Method: as §1

Ramos = details: Burkitt's lymphoma, 72 hr, MTS
Method: as §1

KCL-22 = details: KCL-22, chronic myeloid leukemia; 72 hr, MTS
Method: as §1

MOLT-4 = details: MOLT-4, acute lymphoblastic leukemia; 72 hr, MTS
Method: as §1

EHEB = details: chronic B cell leukemia, 72 hr, MTS
Method: as §1

Raji = details: Burkitt's lymphoma, 72 hr, MTS
Method: as §1

SUP-B15 = details: SUP-B15, acute lymphoblastic leukemia; 72 hr, MTS
Method: as §1

RPMI 8226 = details: RPMI 8226, myeloma; 72 hr, MTS
Method: as §1

ARH-77 = details: ARH-77, myeloma; 72 hr, MTS
Method: as §1

OCI-AML2 = details: OCI-AML2, acute myeloid leukemia; 72 hr, MTS
Method: as §1

SMILES: Cn1cc(CNCC2CCN(c3ncc(C(=O)NO)cn3)CC2)c2ccccc21 [JNJ 26481585]
- concentration when start of induction of acetylation of tubulin and induction of Hsp 70 is observed [1]: 30 nM
- concentration when induction of acetylation of histone H3 and H4 and induction of p21waf1,cip1 is observed [2]: 10 nM

SMILES: O=C(CCCCCCC(=O)Nc1ccccc1)NO [SAHA, suberoylanilide hydroxamic acid]
- concentration when start of induction of acetylation of tubulin and induction of Hsp 70 is observed [1]: 100 nM
- concentration when induction of acetylation of histone H3 and H4 and induction of p21waf1,cip1 is observed [2]: 3000 nM

SMILES: CC(/C=C/C(=O)NO)=C\[C@@H](C)C(=O)c1ccc(N(C)C)cc1 [trichostatin A]
- increase in resistance to the HDAC inhibitor [3]: 6 fold

SMILES: O=C(NO)c1cnc(N2CCN(S(=O)(=O)c3ccc4ccccc4c3)CC2)nc1 [R306465]
- mean IC40 (concentration required to reach 40% inhibition of cell proliferation) (Jurkat clone E6-1): 56.19 nM
- mean IC40 (concentration required to reach 40% inhibition of cell proliferation) (KG-1): 170.59 nM
- mean IC40 (concentration required to reach 40% inhibition of cell proliferation) (Daudi): 454.11 nM
- mean IC40 (concentration required to reach 40% inhibition of cell proliferation) (HL-60): 86.76 nM
- mean IC40 (concentration required to reach 40% inhibition of cell proliferation) (K-562): 80.76 nM
- mean IC40 (concentration required to reach 40% inhibition of cell proliferation) (CCRF-CEM): 78.79 nM
- mean IC40 (concentration required to reach 40% inhibition of cell proliferation) (BV-173): 26.33 nM
- mean IC40 (concentration required to reach 40% inhibition of cell proliferation) (LAMA-84): 165.89 nM
- mean IC40 (concentration required to reach 40% inhibition of cell proliferation) (Namalwa): 49.25 nM
- mean IC40 (concentration required to reach 40% inhibition of cell proliferation) (THP-1): 446.29 nM
- mean IC40 (concentration required to reach 40% inhibition of cell proliferation) (U-937): 154.68 nM
- concentration when start of induction of acetylation of tubulin and induction of Hsp 70 is observed [1]: 1000 nM
- mean IC40 (concentration required to reach 40% inhibition of cell proliferation) (Ramos): 66.08 nM
- mean IC40 (concentration required to reach 40% inhibition of cell proliferation) (KCL-22): 89.88 nM
- mean IC40 (concentration required to reach 40% inhibition of cell proliferation) (MOLT-4): 155.83 nM
- mean IC40 (concentration required to reach 40% inhibition of cell proliferation) (EHEB): 486.62 nM
- mean IC40 (concentration required to reach 40% inhibition of cell proliferation) (Raji): 221.09 nM
- mean IC40 (concentration required to reach 40% inhibition of cell proliferation) (SUP-B15): 15.67 nM
- mean IC40 (concentration required to reach 40% inhibition of cell proliferation) (RPMI 8226): 37.59 nM
- mean IC40 (concentration required to reach 40% inhibition of cell proliferation) (ARH-77): 207.27 nM
- concentration when induction of acetylation of histone H3 and H4 and induction of p21waf1,cip1 is observed [2]: 100 nM
- mean IC40 (concentration required to reach 40% inhibition of cell proliferation) (OCI-AML2): 267.92 nM
